Several values for one entry are separate records, joined by “and”; a condition that tells them apart may be missing. Identical values can stand only once.
What was measured:
[1] = Hayes et al., J. Clin. Pharmacol. 2003; cited from earlier work
[2] = system: rats with middle cerebral artery occlusion (MCAO); test: Cylinder test, overall asymmetry (%), MCAO rats (Example 2); type: in vivo, Sprague Dawley rat
Method: Dosing and Treatment: Rats were treated in accordance with the dosing schedule shown in Tables 2A, 2B, 3 and FIG. 2, with each Phase being a two week period of time. A solution of 4-AP was used in this experiment. Dosing was started at 4 weeks after ischemic event. 4-aminopyridine was dissolved in water for injection (WFI, Cellgro) and sterile filtered. […] Vehicle control treatment was WFI delivered at 2 mL/kg by gastric gavage. […] Starting on day 30 after MCAO (Day 30, start of phase 1), the animals received gavage dosing of solutions (2 mL/kg) approximately 12 hours apart, for a total of five doses. The same schedule was repeated with different treatment on Day 44 and Day 58 for phase 2 and 3 of the study, respectively. Animals were not treated during the 10 days between phases (washout period). Treatment groups: Dosing was started 4 weeks after MCAO surgery. During these 4 weeks, weekly behavioral assessments, as defined below, were performed. Two dose levels of 4-AP plus vehicle control were assessed, with treatment starting at 4 weeks after ischemic event. […] Animals were given the first dose and behavioral assessments were performed starting 60 minutes after dosing. Animals then received the second dose that day at the appropriate time and b.i.d (preferably every 12 hours) thereafter for 2 more days (3 total days of dosing, 5 total doses). One hour after the 5th dose, animals were subjected to behavioral assessments as defined below. Following the final behavioral assessment, drug was withdrawn for 10 or 11 days, behavior was re-assessed, and then animals were re-challenged with a cross-over treatment (Phase 2 of Table 2B) as described in Tables 2A, 2B and 3, followed by the same behavioral testing and dosing regimen. This cross-over was repeated one more time as well (Phase 3 of Table 2B) (see FIG. 2). Cylinder Test: Evaluation was performed at Day −1 (pre-operation), Day 7, Day 21, Day 30, Day 32, Day 44, Day 46, Day 58, Day 60. This test assessed limb use asymmetry. Rats were placed in a transparent cylinder (20 cm in diameter and 30 cm in height) for 3-6 minutes. A mirror was placed behind the cylinder to determine forelimb movements when animal was turned away from the camera. […] Simultaneous use of both left and right forelimbs while contacting the wall during a full rear was also scored. A total number of 20 forelimb placings were counted during a trial. Data was expressed in terms of percent use of the non-impaired and or impaired forelimb relative to the total number of limb use observations for wall movements.

[3] = system: rats with middle cerebral artery occlusion (MCAO); test: Body swing test (% right swing), MCAO rats, double crossover study (Example 2); type: in vivo, Sprague Dawley rat; conditions: for Body Swing Test (% right Swing), individual animals: one value per rat
Method: 4-AP was evaluated for its ability to promote functional sensorimotor improvement following ischemic stroke in rats with stable motor deficits at times remote from their ischemic events. The animal model mimics the conditions in human ischemic stroke and is produced by middle cerebral artery occlusion (MCAO), which results in extensive infarction in cerebral cortex and striatum, including the cortical spinal tract (white matter).
In particular, the MCAO model in Sprague Dawley rats that was utilized in the experiments presented below mimics the conditions in human ischemic stroke. In this model, focal cerebral infarcts were made by permanent occlusion of the proximal right middle cerebral artery (MCA) using a modification of the method of Tamura et al. (No To Shinkei 1986; 38:747-51). Briefly, the temporalis muscle was bisected and reflected through an incision made midway between the eye and the ear canal. The proximal MCA was exposed through a subtemporal craniectomy without removing the zygomatic arch and without transecting the facial nerve.
Dosing and Treatment: Rats were treated in accordance with the dosing schedule shown in Tables 2A, 2B, 3 and FIG. 2, with each Phase being a two week period of time. A solution of 4-AP was used in this experiment. Dosing was started at 4 weeks after ischemic event. 4-aminopyridine was dissolved in water for injection (WFI, Cellgro) and sterile filtered. Final concentrations of 0.315 mg/mL or 1.0 mg/mL of 4-aminopyridine were delivered at 2 mL/kg by gastric gavage, resulting in final doses of 0.63 mg/kg and 2 mg/kg respectively. Vehicle control treatment was WFI delivered at 2 mL/kg by gastric gavage. This study was divided into three treatment phases (1-3) with each randomized cohort of animals receiving a different dose level during each of the treatment phases. Starting on day 30 after MCAO (Day 30, start of phase 1), the animals received gavage dosing of solutions (2 mL/kg) approximately 12 hours apart, for a total of five doses. The same schedule was repeated with different treatment on Day 44 and Day 58 for phase 2 and 3 of the study, respectively. Animals were not treated during the 10 days between phases (washout period).
Treatment groups: Dosing was started 4 weeks after MCAO surgery. During these 4 weeks, weekly behavioral assessments, as defined below, were performed. Two dose levels of 4-AP plus vehicle control were assessed, with treatment starting at 4 weeks after ischemic event. All dosing was via gastric gavage, volume not to exceed 2 mL/kg. Animals were given the first dose and behavioral assessments were performed starting 60 minutes after dosing. Animals then received the second dose that day at the appropriate time and b.i.d (preferably every 12 hours) thereafter for 2 more days (3 total days of dosing, 5 total doses). One hour after the 5th dose, animals were subjected to behavioral assessments as defined below. Following the final behavioral assessment, drug was withdrawn for 10 or 11 days, behavior was re-assessed, and then animals were re-challenged with a cross-over treatment (Phase 2 of Table 2B) as described in Tables 2A, 2B and 3, followed by the same behavioral testing and dosing regimen. This cross-over was repeated one more time as well (Phase 3 of Table 2B) (see FIG. 2).
Behavioral test details: Behavioral evaluations were done by evaluators blinded to treatment assignment. Blinded assessments of sensorimotor function were performed just prior to MCAO surgery, 24 hours after MCAO surgery and weekly thereafter until the first phase of dosing using limb placing and body swing behavioral tests. As described above, behavioral assessments were timed exactly with dosing times. Animals were tested one hour after the 1st and 5th doses of each phase (i.e., Days 30 and 32 of the first phase, Days 44 and 46 of the second phase; and Days 58 and 60 of the third phase); animals were also tested during the washout periods on Days 42 and 56. […]

In the case of `Nc1ccncc1` [4-aminopyridine], the half life [1] is given as 1 to 1.5 h, the “Cylinder Test Score (Overall Asymmetry (%)) Group 2, D30” value ([2]; Group 2, D30, treatment phase 1 (low-dose 4-AP), individual animals and Mean (N=15), listed as 4-AP) is given as 0.00% and 75.00% and 23.33% and 20.00% and 6.90% and the “Cylinder Test Score (Overall Asymmetry (%)) Group 2, D32” value ([2]; Group 2, D32, treatment phase 1 (low-dose 4-AP), individual animals and Mean (N=15), listed as 4-AP) is given as 33.33% and 16.00% and 20.00% and 50.00% and 0.00%. For the same compound, the “Cylinder Test Score (Overall Asymmetry (%)) Group 2, D58” value ([2]; Group 2, D58, treatment phase 3 (high-dose 4-AP), individual animals and Mean (N=12), listed as 4-AP) was 50.00% and 30.00% and 88.00% and 33.33%, the “Cylinder Test Score (Overall Asymmetry (%)) Group 2, D60” value ([2]; Group 2, D60, treatment phase 3 (high-dose 4-AP), individual animals and Mean (N=14), listed as 4-AP) was 64.00% and 20.00% and 10.00% and 0.00% (3×) and −100.00% (2×) and the “Cylinder Test Score (Overall Asymmetry (%)) Group 3, D44” value ([2]; Group 3, D44, treatment phase 2 (high-dose 4-AP), individual animals and Mean (N=13), listed as 4-AP) was 40.00% and 20.00% and 100.00% and 0.00%. For the same compound, the “Cylinder Test Score (Overall Asymmetry (%)) Group 3, D46” value ([2]; Group 3, D46, treatment phase 2 (high-dose 4-AP), individual animals and Mean (N=13), listed as 4-AP) was 50.00% and −60.00% and 0.00% and 6.90%, the “Cylinder Test Score (Overall Asymmetry (%)) Group 3, D58” value ([2]; Group 3, D58, treatment phase 3 (low-dose 4-AP), individual animals and Mean (N=15), listed as 4-AP) was 0.00% (2×) and 5.00% and the “Cylinder Test Score (Overall Asymmetry (%)) Group 3, D60” value ([2]; Group 3, D60, treatment phase 3 (low-dose 4-AP), individual animals and Mean (N=15), listed as 4-AP) was −25.00% and 0.00% (2×) and 16.00%. The “Effect on body symmetry and coordination, cylinder test (FIG. 7)” value ([2]; reversible and dose-dependent) was “effective to improve body symmetry and coordination”, the “Body swing function, low dose compared to vehicle, second mixed model” value ([3]; 0.63 mg/kg b.i.d. p.o., level 0.05) was “didn't show the statistical significant improvement” and the “Body swing function, low dose compared to vehicle, first mixed model” value ([3]; 0.63 mg/kg b.i.d. p.o., p=0.033) was “significantly improved the body swing function”. For the same compound, the “Body swing function, high dose compared to vehicle” value ([3]; 2 mg/kg b.i.d. p.o., first mixed model p=0.0131, second p<0.0001) was “significantly improved the body swing function”, the “Body Swing Test (% right Swing), individual animals” value (shortened to “Body Swing Test (% right Swing)”) ([3]; Group 1 (sequence hlv), D30 after MCAO, phase 1, high dose) was 33.33% and 40.00% (2×) and 30.00% and the “Body Swing Test (% right Swing)” value ([3]; Group 1 (sequence hlv), D32 after MCAO, phase 1, high dose) was 50.00% (3×) and 40.00% (2×) and 30.00%. For the same compound, the “Body Swing Test (% right Swing)” value ([3]; Group 1 (sequence hlv), D44 after MCAO, phase 2, low dose) was 33.33% and 50.00% and 40.00% (2×) and 30.00% (2×), the “Body Swing Test (% right Swing)” value ([3]; Group 1 (sequence hlv), D46 after MCAO, phase 2, low dose) was 33.33% and 30.00% and 20.00% (2×) and 40.00% and the “Body Swing Test (% right Swing)” value ([3]; Group 2 (sequence lvh), D30 after MCAO, phase 1, low dose) was 20.00% and 40.00% and 30.00% (2×). For the same compound, the “Body Swing Test (% right Swing)” value ([3]; Group 2 (sequence lvh), D32 after MCAO, phase 1, low dose) was 40.00% and 30.00% (2×), the “Body Swing Test (% right Swing)” value ([3]; Group 2 (sequence lvh), D58 after MCAO, phase 3, high dose) was 40.00% and 50.00% (2×) and the “Body Swing Test (% right Swing)” value ([3]; Group 2 (sequence lvh), D60 after MCAO, phase 3, high dose) was 40.00% (5×) and 50.00% (4×). For the same compound, the “Body Swing Test (% right Swing)” value ([3]; Group 3 (sequence vhl), D44 after MCAO, phase 2, high dose) was 40.00% (3×) and 43.33% (2×) and 46.67% (2×) and 53.33% and 13.33% and 36.67% and 50.00% (2×) and 23.33% and 33.33%, the “Body Swing Test (% right Swing)” value ([3]; Group 3 (sequence vhl), D46 after MCAO, phase 2, high dose) was 40.00% (3×) and 43.33% (4×) and 50.00% and 30.00% (2×) and 53.33% (3×) and 20.00% and 23.33% and the “Body Swing Test (% right Swing)” value ([3]; Group 3 (sequence vhl), D58 after MCAO, phase 3, low dose) was 30.00% (3×) and 46.67% (3×) and 40.00% (2×) and 20.00% (3×) and 53.33% and 33.33%. For the same compound, the “Body Swing Test (% right Swing)” value ([3]; Group 3 (sequence vhl), D60 after MCAO, phase 3, low dose) was 30.00% (2×) and 43.33% (2×) and 36.67% (4×) and 50.00% (2×) and 26.67% and 23.33%, the “Body swing scores, Day 56 vs. Day 60” value ([3]; Group 3, third treatment phase, low dose 0.63 mg/kg) was “unchanged” and the “Effect on global body control, body swing test (FIG. 5)” value ([3]; low or high dose, reversible and dose-dependent) was “effective to improve global body control”.

Source: patent publication US20160067232A1, “METHODS FOR TREATING A STROKE-RELATED SENSORIMOTOR IMPAIRMENT USING AMINOPYRIDINES” (Acorda Therapeutics, Inc., priority 2011, published 2016)
